According to patent US20200341014A1, “PD Marker of Hepatocyte Growth Factor (HGF)” (EISAI R&D MANAGEMENT CO., LTD., priority 2016, published 2020):

Legend:
ApoA4 protein [1] = assay: Western blot quantification of serum ApoA4 protein in mice administered rh-HGF and c-Met inhibitor (Example 2); format: in vivo, mouse; conditions: FIG. 3
Protocol: (§1) To BALB/cAnNCrlCrlj male 6 weeks-old mice (CHARLES RIVER JAPAN), c-Met inhibitor PF-04217903 (50 mg/kg) (Selleck Chemicals #S1094, lot. 05) or vehicle (5% DMSO, 10% Tween80, 6.7 mmol/L aqueous hydrochloric acid solution) was orally administered at a dose of 10 mL/kg, and after 1 hour, rh-HGF (0.5, 1.5, 5.0, or 15 mg/kg) or PBS was intravenously administered. […] After euthanization, hepatic tissue was collected and immersed in RNA later (Ambion, #AM7021). Serum was collected from the blood collected.
Using the above serum, ApoA4 protein was quantified by Western blot method. To the serum diluted 200-folds with PBS (−) (Wako), ¼ volume of the electrophoresis buffer solution (313 mM Tris-HCl (pH 6.8), 10% SDS, 30% Glycerol, 0.2 mg/mL Bromo-phenol blue, and 25% 2-Mercaptoethnol) was added (the final dilution of the serum will be 250-folds), and this was subjected to heat treatment at 95° C. for 3 minutes. […] After washing three times with the above wash solution, chemiluminescence solution SuperSignal West Dura Extended Duration Substrate (Thermo Scientific) was added to allow luminescence, and ApoA4 protein was detected with LAS-4000 (FUJIFILM).
For the results of serum ApoA4 protein quantification, Dunnett's multiple comparison test was carried out between the control and the rh-HGF administration groups.

human ApoA4 protein = assay: Western blot quantification of human ApoA4 protein in human hepatocyte culture supernatant; format: cell-based; conditions: FIG. 6
Protocol: (§2) Human primary culture hepatocytes seeded in a 24-well plate (3.8×10^5 cells/well, Biopredic International, #HEP220-MW24) were cultured for three days in Incubation Medium (product name: Biopredic International, #MIL214), then c-Met inhibitor PF-04217903 (final concentration 100 nmol/L) (Selleck Chemicals, #S1094, lot. 05) or vehicle (DMSO) was added, and after 1 hour, rh-HGF (final concentration 100, 300, or 1000 ng/mL) or (Incubation Medium) for the control group (Control) was added.
Using hepatocyte culture supernatant (the same culture supernatant as that of cells for preparation of mRNA) 24 Hours after addition of rh-HGF, ApoA4 protein was quantified by Western blot method. […] After washing three times with the above wash solution, chemiluminescence solution SuperSignal West Dura Extended Duration Substrate (Thermo Scientific) was added to allow luminescence, and ApoA4 protein was detected with LAS-4000 (FUJIFILM).
With the quantification results of ApoA4 protein, Dunnett's multiple comparison test was carried out between the control and the rh-HGF administration groups.

human ApoA4 mRNA = assay: Real-time PCR of human ApoA4 mRNA in human primary culture hepatocytes treated with rh-HGF; format: cell-based; conditions: FIG. 5
Protocol: as §2
From hepatocytes 24 hours after addition of rh-HGF, total RNA was purified with RNeasy Mini Kit (QIAGEN, #74104) and RNase-Free DNase set (QIAGEN, #79254), and RNA concentration was measured by absorbance. The purified total RNA was reverse transcripted using High-Capacity cDNA Reverse Transcription Kit with RNase Inhibitor (Applied Biosystems, #4374966) to create cDNA. With the cDNA obtained as the template, the amount of ApoA4 mRNA expressed was examined by real-time PCR method. 18S rRNA was used as the internal control for examination. […]
(§3) With the results of ApoA4 mRNA quantification, Dunnett's multiple comparison test was carried out between the control and the rh-HGF administration groups.

ApoA4 mRNA [2] = assay: Real-time PCR of liver ApoA4 mRNA in mice administered rh-HGF and c-Met inhibitor (Example 2); format: in vivo, mouse; conditions: FIG. 2
Protocol: as §1
From the harvested liver, total RNA was purified with TRIZOL Reagent (Invitrogen, #15596-018), RNeasy Mini Kit (QIAGEN, #74104), and RNase-Free DNase set (QIAGEN, #79254), and RNA concentration was measured by absorbance.
Quantification of ApoA4 mRNA by real-time PCR method was carried out according to Example 1.
as §3

Jo2 liver failure model = assay: Severity of hepatopathy (AST, ALT, PT) in Jo2 liver failure model; format: in vivo, mouse; conditions: Jo2 liver failure mice, rh-HGF into tail vein 1 hour before anti-Fas MAb, 5 hours after MAb; FIG. 4
Protocol: To BALB/cAnNCrlCrlj male 6 weeks-old mice (CHARLES RIVER JAPAN), 0.23 mg/kg of anti-Fas monoclonal antibody (clone name: Jo2, BD Pharmingen, #554254, lot#3269634) was administered once into the tail vein to create an acute liver failure model. To this model, rh-HGF dissolved in PBS was administered into the tail vein at 0.15, 1.5, or 15 mg/kg 1 hour before administration of anti-Fas monoclonal antibody. For the control group (Control), PBS was administered into the tail vein. Five hours after the administration of anti-Fas monoclonal antibody, mice were retained under anesthesia by 3% isoflurane inhalation, blood was collected from the vein located behind the jaw bone, and Prothrombin time (PT) was measured with CoaguChek XS (Roche-diagnostics, #ES350009) and PT Test strips (Roche-diagnostics, #ES350054). […] The measurement of Aspartate Aminotransferase (AST) and Alanine transaminase (ALT) in the serum was each performed with L-type Wako AST·J2 (Wako) kit and L-type Wako ALT·J2 (Wako) kit and an automatic analysis device (Hitachi 7180 Automatic Analyzer, Hitachi High-Technologies). With the measurement results of PT, AST, ALT, and serum ApoA4 protein, Dunnett's multiple comparison test was carried out between the control and the rh-HGF administration groups (FIG. 4).

ApoA4 gene expression = assay: DNA microarray analysis of hepatic tissue of healthy mice administered rh-HGF; format: in vivo, mouse
Protocol: (§4) Using hepatocyte growth factor activator recombinantly expressed in Chinese hamster ovary (CHO) cells, human HGF recombinantly expressed in CHO cells were activated to obtain rh-HGF. BALB/cAnNCrlCrlj male 6 weeks-old mice (CHARLES RIVER JAPAN) were intravenously administered with Dulbecco's Phosphate buffered saline (PBS) (Wako, #045-29795) or rh-HGF (1.5 mg/kg). […] After euthanization, hepatic tissue was collected and immersed in RNA later (Ambion, #AM7021).
From the harvested liver, total RNA was purified with TRIZOL Reagent (Invitrogen, #15596-018), RNeasy Mini Kit (QIAGEN, #74104), and RNase-Free DNase set (QIAGEN, #79254). RNA concentration was measured by absorbance, and then quality check was carried out with RNA 6000 Nano Assay Kit (Agilent Technologies, #5067-1511) using 2100 Bioanalyzer (Agilent Technologies).
The DNA microarray used was SurePrint G3 mouse GE 8×60K (Agilent Technologies, #G4852A). […] Among this, as molecules that may appear to possibly exist as soluble proteins, those having information of “Extracellular” or “Plasma membrane” in Gene Ontology annotation were extracted.

ApoA4 protein [3] = assay: Western blot quantification of serum ApoA4 protein in Jo2 liver failure mice; format: in vivo, mouse; conditions: rh-HGF at 1.5, 5, or 15 mg/kg, FIG. 4
Protocol: To BALB/cAnNCrlCrlj male 6 weeks-old mice (CHARLES RIVER JAPAN), 0.23 mg/kg of anti-Fas monoclonal antibody (clone name: Jo2, BD Pharmingen, #554254, lot#3269634) was administered once into the tail vein to create an acute liver failure model. […] For the control group (Control), PBS was administered into the tail vein.
Quantification of serum ApoA4 protein was carried out according to Example 2.
With the measurement results of PT, AST, ALT, and serum ApoA4 protein, Dunnett's multiple comparison test was carried out between the control and the rh-HGF administration groups (FIG. 4).

ApoA4 mRNA [4] = assay: Real-time PCR of ApoA4 mRNA from liver of healthy mice administered rh-HGF (Example 1); format: in vivo, mouse; conditions: rh-HGF 1.5 mg/kg intravenous, 8 and 24 hr; FIG. 1
Protocol: as §4
The same RNA as the sample employed for DNA microarray was reverse transcripted using High-Capacity cDNA Reverse Transcription Kit with RNase Inhibitor (Applied Biosystems, #4374966) to create cDNA. With the cDNA obtained as the template, the amount of ApoA4 mRNA expressed was examined by real-time PCR method. Hprt mRNA was used as the internal control for examination. For PCR reaction, PCR amplification reaction was carried out with TaqMan Fast Advanced Master Mix (Applied Biosystems, #4444557) and TaqMan Assay (ApoA4: Mm00431814_m1, Hprt: Mm03024075_m1, Applied Biosystems) and using ViiA7 Real-time PCR System (Applied Biosystems). […]
With the results of ApoA4 mRNA quantification, Dunnett's multiple comparison test was carried out between the control and the rh-HGF administration groups (FIG. 1).

[5] = PF-04217903 50 mg/kg oral 1 hour before rh-HGF
[6] = PF-04217903 100 nmol/L added 1 hour before rh-HGF
[7] = rh-HGF 0.5-15 mg/kg intravenous, 24 hours

| Compound | Effect on rh-HGF induction of serum ApoA4 protein (ApoA4 protein [1]; [5]) | Effect on rh-HGF enhancement of extracellular release of human ApoA4 protein (human ApoA4 protein; [6]) | Effect on rh-HGF enhancement of human ApoA4 mRNA expression (human ApoA4 mRNA; [6]) | Effect on rh-HGF induction of liver ApoA4 mRNA expression (ApoA4 mRNA [2]; [5]) | Effect on elevation of ALT (Jo2 liver failure model) | Effect on elevation of AST (Jo2 liver failure model) | Effect on extension of PT (Prothrombin time) (Jo2 liver failure model) | ApoA4 protein expression in the serum (ApoA4 protein [1]; [7]) | Signal value (average) 8 hours, ApoA4 (A_51_P327491) (ApoA4 gene expression; liver, 8 hr after rh-HGF 1.5 mg/kg intravenous) | Change in expression (vs 0 hours) 8 hours Ratio, ApoA4 (ApoA4 gene expression; liver, 8 hr after rh-HGF 1.5 mg/kg intravenous, vs PBS group) | Signal value (average) 24 hours, ApoA4 (A_51_P327491) (ApoA4 gene expression; liver, 24 hr after rh-HGF 1.5 mg/kg intravenous) | Change in expression (vs 0 hours) 24 hours Ratio, ApoA4 (ApoA4 gene expression; liver, 24 hr after rh-HGF 1.5 mg/kg intravenous, vs PBS group) | ApoA4 expression in liver (DNA microarray) (ApoA4 gene expression; rh-HGF 1.5 mg/kg intravenous vs PBS only (Group 1)) | Blood ApoA4 protein value (ApoA4 protein [3]) | Extracellular release of human ApoA4 protein (human ApoA4 protein; human primary culture hepatocytes, culture supernatant, rh-HGF 100, 300 or 1000 ng/mL, 24 hours) | Human ApoA4 mRNA expression (human ApoA4 mRNA; human primary culture hepatocytes, rh-HGF 100, 300 or 1000 ng/mL, 24 hours) | ApoA4 mRNA expression in liver (real-time PCR, Hprt internal control) (ApoA4 mRNA [4]) | ApoA4 mRNA expression in the liver (ApoA4 mRNA [2]; [7]) |
| --- | --- | --- | --- | --- | --- | --- | --- | --- | --- | --- | --- | --- | --- | --- | --- | --- | --- | --- |
| OCCn1cc(-c2cnc3nnn(Cc4ccc5ncccc5c4)c3n2)cn1 [PF-04217903, reference compound] | inhibited | inhibited | inhibited | significantly inhibited |  |  |  |  |  |  |  |  |  |  |  |  |  |  |
| rh-HGF: human HGF recombinantly expressed in CHO cells, activated with hepatocyte growth factor activator recombinantly expressed in CHO cells |  |  |  |  | strongly inhibited | strongly inhibited | strongly inhibited | induction of ApoA4 protein expression | 15738 | 6.46 | 13453 | 5.52 | enhancement of expression | significant elevation | strongly enhanced | strongly enhanced | strongly enhanced | significantly induced/enhanced |
